Measurements from ChEMBL document CHEMBL5036306 (J Med Chem, 2021).
Calls of active or inactive are those of the source. The calls are words filed in the database; no cut-off is given here.

Columns and labels:
Homo sapiens [1] = species: Homo sapiens; experiment: Selectivity ratio of IC50 for recombinant HDAC4 (unknown origin) to IC50 for recombinant HDAC6 (unknown origin)
Histone deacetylase 4 = Histone deacetylase 4 (Homo sapiens, UniProt P56524); experiment: Inhibition of recombinant HDAC4 (unknown origin) using Boc-Lys(trifluoroacetyl)-AMC as substrate pre-incubated for 1 hr followed by substrate addition and measured after 2 hrs by fluorescence based assay
Histone deacetylase 4, sequence (P56524 whole entry): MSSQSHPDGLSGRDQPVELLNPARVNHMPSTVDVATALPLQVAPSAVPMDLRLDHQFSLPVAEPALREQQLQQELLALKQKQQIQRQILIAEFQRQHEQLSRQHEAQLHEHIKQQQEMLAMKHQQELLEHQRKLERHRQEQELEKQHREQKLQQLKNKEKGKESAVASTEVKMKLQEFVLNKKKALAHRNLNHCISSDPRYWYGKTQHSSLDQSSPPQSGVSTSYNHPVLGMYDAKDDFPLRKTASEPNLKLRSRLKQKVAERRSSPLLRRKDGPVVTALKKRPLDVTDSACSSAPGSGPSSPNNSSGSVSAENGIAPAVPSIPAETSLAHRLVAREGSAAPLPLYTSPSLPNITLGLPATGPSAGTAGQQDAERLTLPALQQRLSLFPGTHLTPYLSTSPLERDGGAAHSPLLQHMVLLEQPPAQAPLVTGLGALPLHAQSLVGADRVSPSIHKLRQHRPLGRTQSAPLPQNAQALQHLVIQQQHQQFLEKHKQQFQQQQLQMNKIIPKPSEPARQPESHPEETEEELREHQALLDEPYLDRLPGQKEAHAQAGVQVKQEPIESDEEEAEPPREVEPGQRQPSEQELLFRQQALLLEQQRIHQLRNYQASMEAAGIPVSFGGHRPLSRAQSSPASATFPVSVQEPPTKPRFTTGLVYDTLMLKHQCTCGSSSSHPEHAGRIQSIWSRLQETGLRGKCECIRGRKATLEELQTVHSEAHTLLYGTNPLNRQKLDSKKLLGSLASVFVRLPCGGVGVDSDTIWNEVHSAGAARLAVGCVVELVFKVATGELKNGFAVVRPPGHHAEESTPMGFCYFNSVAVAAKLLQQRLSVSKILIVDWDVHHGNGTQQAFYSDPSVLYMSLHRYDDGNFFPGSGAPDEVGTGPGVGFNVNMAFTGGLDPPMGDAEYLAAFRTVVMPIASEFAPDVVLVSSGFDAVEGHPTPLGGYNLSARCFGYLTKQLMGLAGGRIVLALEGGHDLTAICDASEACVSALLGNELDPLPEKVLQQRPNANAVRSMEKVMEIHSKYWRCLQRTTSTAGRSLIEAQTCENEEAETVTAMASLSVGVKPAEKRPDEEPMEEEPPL

Homo sapiens [2] = species: Homo sapiens; experiment: Selectivity ratio of IC50 for recombinant HDAC1 (unknown origin) to IC50 for recombinant HDAC6 (unknown origin)
Histone deacetylase 9 = Histone deacetylase 9 (Homo sapiens, UniProt Q9UKV0); experiment: Inhibition of recombinant HDAC9 (unknown origin) using Boc-Lys(trifluoroacetyl)-AMC as substrate pre-incubated for 1 hr followed by substrate addition and measured after 2 hrs by fluorescence based assay
Histone deacetylase 9, sequence (Q9UKV0 whole entry): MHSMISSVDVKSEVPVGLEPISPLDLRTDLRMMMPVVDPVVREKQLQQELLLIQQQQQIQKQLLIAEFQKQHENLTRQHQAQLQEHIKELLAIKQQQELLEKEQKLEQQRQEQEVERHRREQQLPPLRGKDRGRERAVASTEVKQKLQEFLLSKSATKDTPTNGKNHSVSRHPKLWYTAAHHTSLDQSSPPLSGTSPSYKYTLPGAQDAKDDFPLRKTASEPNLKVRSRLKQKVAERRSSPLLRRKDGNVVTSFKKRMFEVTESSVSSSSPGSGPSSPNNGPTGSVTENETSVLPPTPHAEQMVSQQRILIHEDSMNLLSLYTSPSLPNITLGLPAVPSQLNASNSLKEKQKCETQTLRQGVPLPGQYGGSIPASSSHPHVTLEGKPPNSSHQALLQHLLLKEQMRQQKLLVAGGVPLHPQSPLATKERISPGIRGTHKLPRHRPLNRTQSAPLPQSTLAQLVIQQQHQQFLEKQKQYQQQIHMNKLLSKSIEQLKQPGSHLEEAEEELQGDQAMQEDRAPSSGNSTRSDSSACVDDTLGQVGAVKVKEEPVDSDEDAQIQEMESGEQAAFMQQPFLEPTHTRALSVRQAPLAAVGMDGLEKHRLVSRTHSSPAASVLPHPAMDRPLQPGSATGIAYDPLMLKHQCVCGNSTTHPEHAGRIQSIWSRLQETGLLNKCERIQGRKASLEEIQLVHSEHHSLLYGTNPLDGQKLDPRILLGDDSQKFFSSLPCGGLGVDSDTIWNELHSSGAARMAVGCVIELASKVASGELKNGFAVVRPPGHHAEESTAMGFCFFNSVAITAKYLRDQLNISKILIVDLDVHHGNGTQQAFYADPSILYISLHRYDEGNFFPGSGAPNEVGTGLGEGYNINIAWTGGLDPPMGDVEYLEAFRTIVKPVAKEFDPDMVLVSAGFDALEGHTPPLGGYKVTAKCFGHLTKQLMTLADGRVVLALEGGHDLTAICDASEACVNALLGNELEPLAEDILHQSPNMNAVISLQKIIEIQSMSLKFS

Homo sapiens [3] = species: Homo sapiens; experiment: Selectivity ratio of IC50 for recombinant HDAC7 (unknown origin) to IC50 for recombinant HDAC6 (unknown origin)
[4] = Metal chelating activity compound-Zn2+ complex formation at 10 to 200 uM preincubated for 2 mins followed by di-thizone addition by microplate reader based assay; details: dose 10-200 µM
Histone deacetylase 8 = target: T1, Histone deacetylase 8 (Homo sapiens, UniProt Q9BY41); experiment: Inhibition of recombinant HDAC8 (unknown origin) using Boc-Lys(trifluoroacetyl)-AMC as substrate pre-incubated for 1 hr followed by substrate addition and measured after 2 hrs by fluorescence based assay
T1 sequence (Q9BY41 whole entry): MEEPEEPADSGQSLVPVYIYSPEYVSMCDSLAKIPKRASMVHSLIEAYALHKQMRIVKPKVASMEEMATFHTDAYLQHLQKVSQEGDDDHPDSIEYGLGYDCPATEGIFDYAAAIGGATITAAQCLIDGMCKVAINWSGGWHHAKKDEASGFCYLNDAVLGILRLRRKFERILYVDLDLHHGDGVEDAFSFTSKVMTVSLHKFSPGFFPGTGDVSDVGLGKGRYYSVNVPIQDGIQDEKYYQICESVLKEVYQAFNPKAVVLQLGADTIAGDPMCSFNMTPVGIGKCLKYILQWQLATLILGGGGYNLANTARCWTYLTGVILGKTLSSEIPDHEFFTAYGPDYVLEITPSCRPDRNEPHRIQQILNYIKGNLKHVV

N9 [5] = experiment: Immunomodulatory activity in LPS-induced mouse N9 microglial cells assessed as increase in TREM2 expression at 0.1 to 5 uM incubated for 24 hrs by Western blot analysis; format: functional; details: dose 0.1-5 µM
[6] = Antioxidant activity assessed as DPPH radical scavenging activity incubated for 30 mins under dark condition by microplate reader based assay; format: functional
[7] = Metal chelating activity assessed as compound-Cu2+ complex formation at 10 to 200 uM incubated for 2 mins followed by pyrocatechol violet addition and further incubated for 10 mins by microplate reader based assay; details: dose 10-200 µM, time 12.0 min
[8] = Neurotoxicity in mouse HT-22 cells assessed as cell survival at 10 uM incubated for 48 hrs by MTT assay; format: cell-based; details: ht-22, 48 h, 10 µM
[9] = Metal chelating activity assessed as Fe2+ -ferrozoine complex formation at 10 to 200 uM preincubated for 2 mins followed by ferrozine addition and further incubated for 10 mins by microplate reader based assay; details: dose 10-200 µM, time 12.0 min
Mus musculus [10] = experiment: Neuroprotection against mouse model of Alzheimer's disease at 1 mg/kg; format: functional, organism-based
Mus musculus [11] = experiment: Anti-alzheimer activity against amyloid beta (25 to 35) induced working memory deficit in mouse assessed as increase in spontaneous alternation performance at 0.3 mg/kg, ip administered for 7 days and measured on day 8 by Y-maze test; format: functional, organism-based; details: time 8.0 day
[12] = target: T2, Protein deacetylase HDAC6 (Mus musculus) (UniProt Q9Z2V5); experiment: Inhibition of HDAC6 in mouse HT-22 cells assessed as increase in acetylated histone H3 level at 20 to 500 nM after 24 hrs by Western blotting analysis; format: cell-based; details: dose 20-500 nM
T2 sequence (whole entry): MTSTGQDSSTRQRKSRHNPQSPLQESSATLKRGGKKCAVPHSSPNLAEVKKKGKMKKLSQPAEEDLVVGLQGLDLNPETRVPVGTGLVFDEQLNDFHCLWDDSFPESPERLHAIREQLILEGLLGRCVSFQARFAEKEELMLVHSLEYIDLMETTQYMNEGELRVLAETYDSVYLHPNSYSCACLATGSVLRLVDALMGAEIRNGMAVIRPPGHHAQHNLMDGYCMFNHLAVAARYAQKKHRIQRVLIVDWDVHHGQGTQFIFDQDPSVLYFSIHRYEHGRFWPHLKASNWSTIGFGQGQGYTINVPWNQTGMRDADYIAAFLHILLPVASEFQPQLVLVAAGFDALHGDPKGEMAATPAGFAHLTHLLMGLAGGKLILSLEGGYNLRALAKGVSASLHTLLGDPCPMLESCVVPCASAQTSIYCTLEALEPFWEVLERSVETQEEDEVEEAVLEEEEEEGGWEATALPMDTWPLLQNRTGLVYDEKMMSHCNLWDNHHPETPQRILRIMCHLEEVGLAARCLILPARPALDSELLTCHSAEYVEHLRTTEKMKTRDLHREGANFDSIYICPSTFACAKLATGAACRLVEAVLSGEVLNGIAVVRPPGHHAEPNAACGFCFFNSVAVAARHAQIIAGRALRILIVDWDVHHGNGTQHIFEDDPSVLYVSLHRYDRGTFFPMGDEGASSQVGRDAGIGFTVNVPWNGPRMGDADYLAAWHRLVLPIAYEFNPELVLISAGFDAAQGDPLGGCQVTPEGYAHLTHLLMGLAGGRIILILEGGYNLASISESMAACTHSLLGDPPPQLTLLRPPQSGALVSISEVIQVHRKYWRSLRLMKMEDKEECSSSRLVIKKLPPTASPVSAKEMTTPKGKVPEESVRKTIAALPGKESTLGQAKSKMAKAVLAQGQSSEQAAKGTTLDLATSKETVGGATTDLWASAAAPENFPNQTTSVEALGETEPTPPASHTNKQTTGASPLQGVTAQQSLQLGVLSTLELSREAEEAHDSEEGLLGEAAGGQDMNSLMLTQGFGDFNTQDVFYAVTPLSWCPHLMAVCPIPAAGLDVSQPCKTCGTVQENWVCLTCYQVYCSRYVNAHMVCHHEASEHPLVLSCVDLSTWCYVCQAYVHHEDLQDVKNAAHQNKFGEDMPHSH

N9 [13] = experiment: Immunomodulatory activity in mouse N9 microglial cells assessed as reduction in LPS-induced iNOS expression incubated for 24 hrs by Western blot analysis; format: functional, cell-based; details: dose 0.1-5 µM
Mus musculus [14] = experiment: Cognitive enhancing effect in mouse model of Alzheimer's disease at 1 mg/kg; format: functional, organism-based
[15] = Toxicity in mouse model of Alzheimer's disease assessed as drug tolerability at 0.3 to 3 mg/kg, ip measured after 7 days; format: organism-based; details: in vivo, 168 h, dose 0.3-3 mg/kg, time 7 day
[16] = target: T2, Protein deacetylase HDAC6 (Mus musculus); experiment: Inhibition of HDAC6 in mouse HT-22 cells assessed as increase in acetylated histone H4 level at 20 to 500 nM after 24 hrs by Western blotting analysis; format: cell-based; details: dose 20-500 nM

In the case of COc1ccc2c(c1)c(CCNC(C)=O)cn2Cc1ccc(C(=O)NO)cc1, the Ratio IC50 (Homo sapiens [1]) is reported as 306, the IC50 (Histone deacetylase 4; read-out: IC50) is reported as 3.43 µM and the IC50 (Histone deacetylase 4; read-out: pIC50 (converted)) is reported as 3.39 µM. For the same compound, the Ratio IC50 (Homo sapiens [2]) was 23, the IC50 (Histone deacetylase 9) was 0.362 µM and the Ratio IC50 (Homo sapiens [3]) was 148. The Activity [4] was “Active”, the IC50 (Histone deacetylase 8) was 0.838 µM and the Activity (N9 [5]) was “inactive”. The EC50 [6] was 56.3 µM, the Activity [7] was “Active” and the Activity [8] was “Toxic”. For the same compound, the Activity [9] was “Active”.
With COc1ccc2[nH]cc(CCN(Cc3ccc(C(=O)NO)cc3)C(=O)/C=C/c3ccc(O)c(OC)c3)c2c1 the Activity (Mus musculus [10]) was “Active”, the Ratio IC50 (Homo sapiens [1]) was over 326 and the IC50 (Histone deacetylase 4; read-out: IC50) was over 10 µM. The Activity (Mus musculus [11]) was “Active”, the Ratio IC50 (Homo sapiens [2]) was 25 and the inhibition [12] was “inactive”. The IC50 (Histone deacetylase 9) was over 10 µM, the Ratio IC50 (Homo sapiens [3]) was over 326 and the Activity [4] was “Active”. For the same compound, the IC50 (Histone deacetylase 8) was 3.59 µM, the Activity (N9 [13]) was “Dose-Dependent Effect” and the Activity (Mus musculus [14]) was “Active”. The Activity (N9 [5]) was “Active”, the EC50 [6] was 10.8 µM and the Activity [15] was “Non-Toxic”. For the same compound, the inhibition [16] was “inactive”, the Activity [7] was “Active” and the Activity [8] was “Non-Toxic”. For the same compound, the Activity [9] was “Active”.
